Source: patent US20130172294A1, “Treatment with VB-201” (Vascular Biogenics Ltd., priority 2010, published 2013)

Assays:
[1] = Repeated daily dose pharmacokinetics of VB-201 in plasma, 14 days (Example 2); type: in vivo, human; details: for T1/2 (rec. ph.): recovery phase after Day 14
Experimental: Determination of VB-201 concentrations in plasma was performed using an HPLC-MS/MS (high performance liquid chromatography with tandem mass spectrometric detection) assay. Calibration was for a range of from 5 to 500 ng/ml for low doses and from 50 to 5000 ng/ml for high doses. Pharmacokinetic parameters were estimated by using a non-compartmental method, except for the AUC (area under curve), which was determined using a (log-) trapezoidal rule as the area above the previous trough level. […] The subjects were all healthy volunteers. […] 10 subjects received a placebo. The VB-201 was formulated in gelatin capsules enterocoated with Opadry AMB and Acryleze White. The 20 mg dose was originally in the form of 20 mg capsules. […] Pharmacokinetic blood samples for VB-201 determination were collected on Day 0 and Day 14, prior to dosing and 2, 4, 6, 8, 10, 12, 16 and 24 hours after dosing. […] Pharmacokinetic samples were also collected on Day 12 and Day 13, before dosing. Concentration-time curves were constructed for a time period of 24 hours on each of days 1 and 14. In addition, urine samples from the subjects receiving 30 mg VB-201 were assayed for VB-201 by high performance liquid chromatography-tandem mass spectrometry. […] The limit of detection was 1 ng/ml.

[2] = Safety and tolerability of repeated doses 5-30 mg (Example 2); type: in vivo, human
From the text: Safety and tolerability of VB-201 was judged by evaluating the incidence of abnormal findings in the following measurements: vital signs: systolic and diastolic blood pressure, heart rate, respiratory rate, body temperature; physical examination; 12-lead electrocardiogram; laboratory tests of blood samples for: complete blood count, prothrombin time/partial thromboplastin time, LDL- and HDL-cholesterol, total cholesterol, triglycerides, glucose, blood urea nitrogen, sodium, potassium, creatinine, calcium, phosphorus, creatinine phosphokinase, lactate dehydrogenase, aspartate transaminase, alanine transaminase, γ-glutamyl transferase, alkaline phosphatase, protein, albumin, total bilirubin, total IgM and IgG antibodies, interleukin-12/23 p40, tumor necrosis factor-α, and interleukin-6, as well as routine urinalysis; and all adverse events, whether or not considered serious, and whether or not considered related to the investigational agent, according to the criteria for Good Clinical Practice. Treatment-emergent adverse events were defined as any adverse event that started on or after administration of the first dose of VB-201, and no more than 30 days after administration of the last dose, or are ongoing at the time of the first dose and worsened in severity or frequency during treatment. […] The subjects were all healthy volunteers. […] 10 subjects received a placebo. […]

CCCCCCCCCCCCCCCCOCC(COP(=O)([O-])OCC[N+](C)(C)C)OCCCCC(=O)O (stereo not shown) [VB-201, 1-hexadecyl-2-(4′-carboxybutyl)-glycerol-3-phosphocholine]
multi-day accumulation relative to a single dose, estimated from elimination data ([1]; continued once per day dosing): approximately 4 times | AUC(0-24) ([1]; daily 5 mg, Day 1): 1731 ng·h/mL | AUC(0-infinity) ([1]; daily 5 mg, Day 1): 6005 ng·h/mL | AUMC (0-24) ([1]; daily 5 mg, Day 1): 23670 hours^2*ng/ml | AUMC (0-infinity) ([1]; daily 5 mg, Day 1): 341432 hours^2*ng/ml | Cl/F (0-24) ([1]; daily 5 mg, Day 1): 3.92 L/h | Cmax ([1]; daily 5 mg, Day 1): 117.34 ng/mL | Kc ([1]; daily 5 mg, Day 1): 0.0250 h⁻¹ | MTT ([1]; daily 5 mg, Day 1): 14.51 h | T1/2 ([1]; daily 5 mg, Day 1): 32.18 h | Tmax ([1]; daily 5 mg, Day 1): 10 h | AUC(0-24) ([1]; daily 5 mg, Day 14): 6238 ng·h/mL | AUC(0-infinity) ([1]; daily 5 mg, Day 14): 15913 ng·h/mL | AUMC (0-24) ([1]; daily 5 mg, Day 14): 71173 hours^2*ng/ml | AUMC (0-infinity) ([1]; daily 5 mg, Day 14): 821875 hours^2*ng/ml | Accum. (accumulation) ([1]; daily 5 mg, Day 14): 4.75 | Cl/F (0-24) ([1]; daily 5 mg, Day 14): 0.90 L/h | Cmax ([1]; daily 5 mg, Day 14): 340.31 ng/mL | Kc ([1]; daily 5 mg, Day 14): 0.0278 h⁻¹ | MTT ([1]; daily 5 mg, Day 14): 11.41 h | T1/2 ([1]; daily 5 mg, Day 14): 30.95 h | Tmax ([1]; daily 5 mg, Day 14): 9.67 h | T1/2 (rec. ph.) ([1]; daily 5 mg): 44.17 h | AUC(0-24) ([1]; daily 10 mg, Day 1): 3494 ng·h/mL | AUC(0-infinity) ([1]; daily 10 mg, Day 1): 9912 ng·h/mL | AUMC (0-24) ([1]; daily 10 mg, Day 1): 45924 hours^2*ng/ml | AUMC (0-infinity) ([1]; daily 10 mg, Day 1): 440602 hours^2*ng/ml | Cl/F (0-24) ([1]; daily 10 mg, Day 1): 4.92 L/h | Cmax ([1]; daily 10 mg, Day 1): 227.92 ng/mL | Kc ([1]; daily 10 mg, Day 1): 0.0285 h⁻¹ | MTT ([1]; daily 10 mg, Day 1): 14.44 h | T1/2 ([1]; daily 10 mg, Day 1): 27.09 h | Tmax ([1]; daily 10 mg, Day 1): 11.33 h | AUC(0-24) ([1]; daily 10 mg, Day 14): 12617 ng·h/mL | AUC(0-infinity) ([1]; daily 10 mg, Day 14): 36183 ng·h/mL | AUMC (0-24) ([1]; daily 10 mg, Day 14): 148375 hours^2*ng/ml | AUMC (0-infinity) ([1]; daily 10 mg, Day 14): 2596242 hours^2*ng/ml | Accum. (accumulation) ([1]; daily 10 mg, Day 14): 5.06 | Cl/F (0-24) ([1]; daily 10 mg, Day 14): 0.87 L/h | Cmax ([1]; daily 10 mg, Day 14): 665.80 ng/mL | Kc ([1]; daily 10 mg, Day 14): 0.0267 h⁻¹ | MTT ([1]; daily 10 mg, Day 14): 11.72 h | T1/2 ([1]; daily 10 mg, Day 14): 34.27 h | Tmax ([1]; daily 10 mg, Day 14): 11 h | T1/2 (rec. ph.) ([1]; daily 10 mg): 35.77 h | AUC(0-24) ([1]; daily 20 mg, Day 1): 4186 ng·h/mL | AUC(0-infinity) ([1]; daily 20 mg, Day 1): 12721 ng·h/mL | AUMC (0-24) ([1]; daily 20 mg, Day 1): 58323 hours^2*ng/ml | AUMC (0-infinity) ([1]; daily 20 mg, Day 1): 752013 hours^2*ng/ml | Cl/F (0-24) ([1]; daily 20 mg, Day 1): 5.21 L/h | Cmax ([1]; daily 20 mg, Day 1): 294.23 ng/mL | Kc ([1]; daily 20 mg, Day 1): 0.0307 h⁻¹ | MTT ([1]; daily 20 mg, Day 1): 14.04 h | T1/2 ([1]; daily 20 mg, Day 1): 30.91 h | Tmax ([1]; daily 20 mg, Day 1): 12.33 h | AUC(0-24) ([1]; daily 20 mg, Day 14): 20553 ng·h/mL | AUC(0-infinity) ([1]; daily 20 mg, Day 14): 47828 ng·h/mL | AUMC (0-24) ([1]; daily 20 mg, Day 14): 229287 hours^2*ng/ml | AUMC (0-infinity) ([1]; daily 20 mg, Day 14): 2070644 hours^2*ng/ml | Accum. (accumulation) ([1]; daily 20 mg, Day 14): 4.90 | Cl/F (0-24) ([1]; daily 20 mg, Day 14): 1.46 L/h | Cmax ([1]; daily 20 mg, Day 14): 1275.65 ng/mL | Kc ([1]; daily 20 mg, Day 14): 0.0338 h⁻¹ | MTT ([1]; daily 20 mg, Day 14): 11.16 h | T1/2 ([1]; daily 20 mg, Day 14): 25.09 h | Tmax ([1]; daily 20 mg, Day 14): 7.33 h | T1/2 (rec. ph.) ([1]; daily 20 mg): 30.89 h | AUC(0-24) ([1]; daily 30 mg, Day 1): 6409 ng·h/mL | AUC(0-infinity) ([1]; daily 30 mg, Day 1): 67386 ng·h/mL | AUMC (0-24) ([1]; daily 30 mg, Day 1): 92749 hours^2*ng/ml | AUMC (0-infinity) ([1]; daily 30 mg, Day 1): 11648110 hours^2*ng/ml | Cl/F (0-24) ([1]; daily 30 mg, Day 1): 8.55 L/h | Cmax ([1]; daily 30 mg, Day 1): 416.58 ng/mL | Kc ([1]; daily 30 mg, Day 1): 0.0220 h⁻¹ | MTT ([1]; daily 30 mg, Day 1): 14.73 h | T1/2 ([1]; daily 30 mg, Day 1): 72.30 h | Tmax ([1]; daily 30 mg, Day 1): 19 h | AUC(0-24) ([1]; daily 30 mg, Day 14): 30555 ng·h/mL | AUC(0-infinity) ([1]; daily 30 mg, Day 14): 64120 ng·h/mL | AUMC (0-24) ([1]; daily 30 mg, Day 14): 358861 hours^2*ng/ml | AUMC (0-infinity) ([1]; daily 30 mg, Day 14): 2456341 hours^2*ng/ml | Accum. (accumulation) ([1]; daily 30 mg, Day 14): 7.07 | Cl/F (0-24) ([1]; daily 30 mg, Day 14): 1.09 L/h | Cmax ([1]; daily 30 mg, Day 14): 1821.40 ng/mL | Kc ([1]; daily 30 mg, Day 14): 0.0333 h⁻¹ | MTT ([1]; daily 30 mg, Day 14): 11.78 h | T1/2 ([1]; daily 30 mg, Day 14): 23.64 h | Tmax ([1]; daily 30 mg, Day 14): 10 h | T1/2 (rec. ph.) ([1]; daily 30 mg): 32.78 h | VB-201 in urine samples ([1]; daily 30 mg, HPLC-MS/MS, limit of detection 1 ng/ml): No traces of VB-201 could be detected | induction or inhibition of metabolism ([1]; daily 5-30 mg): does not show significant induction or inhibition of metabolism | average accumulation rate ([1]; daily 5-30 mg, Day 14): approximately 5 | serious or severe adverse events ([2]; daily 5-30 mg, 14 days): No serious or severe adverse events occurred | safety and tolerability ([2]; orally for 14 days at daily doses 5 mg to 30 mg): as safe and tolerable as placebo
